# Literature values as cited in patent US20050255155A1, “Modified release cilostazol compositions” (Glenmark Pharmaceuticals Limited, priority 2004, published 2005).
# Conditions: BCS characterisation
compound,measurement,value
"O=C1CCc2cc(OCCCCc3nnnn3C3CCCCC3)ccc2N1 [cilostazol, 6-[4-(1-cyclohexyl-1H-tertazole-5-yl)butoxy]-3,4-dihydro-2 (1H)-quinolinone]",solubility,low solubility
